Data as given in ChEMBL document CHEMBL4052759, “Discovery of DS79182026: A potent orally active hepcidin production inhibitor” (Bioorg Med Chem Lett, 2017).
Each block holds one molecule with its values, some of them ahead of it.

Legend:
[1] = molecular target: Vascular endothelial growth factor receptor 2 (Homo sapiens) (UniProt P35968); experiment: Inhibition of KDR (unknown origin) at 0.078 uM relative to control
[2] = molecular target: RAF proto-oncogene serine/threonine-protein kinase (Homo sapiens) (UniProt P04049); experiment: Inhibition of c-Raf (unknown origin) at 0.078 uM relative to control
[3] = molecular target: T1, Aurora kinase A (Homo sapiens) (UniProt O14965); experiment: Inhibition of AurA (unknown origin) at 0.078 uM relative to control
T1 sequence (whole entry): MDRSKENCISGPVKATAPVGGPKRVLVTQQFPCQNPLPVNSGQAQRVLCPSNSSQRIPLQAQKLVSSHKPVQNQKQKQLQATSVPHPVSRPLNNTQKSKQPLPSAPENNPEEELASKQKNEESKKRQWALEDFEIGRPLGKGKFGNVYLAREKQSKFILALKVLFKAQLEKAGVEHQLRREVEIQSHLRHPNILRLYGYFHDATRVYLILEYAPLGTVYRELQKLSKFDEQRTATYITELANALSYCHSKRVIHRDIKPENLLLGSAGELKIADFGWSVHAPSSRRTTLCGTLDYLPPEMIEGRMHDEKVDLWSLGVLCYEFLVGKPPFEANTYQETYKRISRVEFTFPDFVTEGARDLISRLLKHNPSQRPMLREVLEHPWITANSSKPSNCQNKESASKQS

[4] = molecular target: T2, MAP kinase-activated protein kinase 5 (Homo sapiens) (UniProt Q8IW41); experiment: Inhibition of PRAK (unknown origin) at 0.49 uM relative to control
T2 sequence (whole entry): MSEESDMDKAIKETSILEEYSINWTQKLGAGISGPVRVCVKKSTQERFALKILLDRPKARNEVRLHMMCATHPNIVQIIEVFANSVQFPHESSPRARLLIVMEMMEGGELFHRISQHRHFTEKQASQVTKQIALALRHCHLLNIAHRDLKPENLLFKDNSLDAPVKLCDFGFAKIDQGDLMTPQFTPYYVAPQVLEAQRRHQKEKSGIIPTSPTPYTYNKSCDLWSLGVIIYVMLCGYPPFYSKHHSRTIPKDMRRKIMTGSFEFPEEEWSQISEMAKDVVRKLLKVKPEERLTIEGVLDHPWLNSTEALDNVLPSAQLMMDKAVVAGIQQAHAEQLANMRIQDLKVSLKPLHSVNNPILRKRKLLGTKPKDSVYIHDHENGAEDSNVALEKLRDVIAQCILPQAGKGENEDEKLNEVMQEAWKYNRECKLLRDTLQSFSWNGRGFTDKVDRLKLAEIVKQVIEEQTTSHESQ

[5] = molecular target: Platelet-derived growth factor receptor beta (Homo sapiens) (UniProt P09619); experiment: Inhibition of PDGFR beta (unknown origin) at 0.49 uM relative to control
[6] = molecular target: Ribosomal protein S6 kinase alpha-2 (Homo sapiens) (UniProt Q15349); experiment: Inhibition of RSK3 (unknown origin) at 0.49 uM relative to control
[7] = molecular target: Ephrin type-B receptor 2 (Homo sapiens) (UniProt P29323); experiment: Inhibition of EPHB2 (unknown origin) at 0.49 uM relative to control
[8] = molecular target: Tyrosine-protein kinase Mer (Homo sapiens) (UniProt Q12866); experiment: Inhibition of Mer (unknown origin) at 0.49 uM relative to control
[9] = molecular target: Fibroblast growth factor receptor 4 (Homo sapiens) (UniProt P22455); experiment: Inhibition of FGFR4 (unknown origin) at 0.49 uM relative to control
[10] = molecular target: Tyrosine-protein kinase HCK (Homo sapiens) (UniProt P08631); experiment: Inhibition of Hck (unknown origin) at 0.49 uM relative to control
[11] = molecular target: Mitogen-activated protein kinase kinase kinase kinase 4 (Homo sapiens) (UniProt O95819); experiment: Inhibition of HGK (unknown origin) at 0.49 uM relative to control
[12] = molecular target: Tyrosine-protein kinase Lyn (Homo sapiens) (UniProt P07948); experiment: Inhibition of LYN (unknown origin) at 0.49 uM relative to control
[13] = test system: Fibroblast growth factor receptor 2 (Homo sapiens), P21802 [N549H]; experiment: Inhibition of FGFR2 N549H mutant (unknown origin) at 0.49 uM
[14] = molecular target: Dual specificity tyrosine-phosphorylation-regulated kinase 1B (Homo sapiens) (UniProt Q9Y463); experiment: Inhibition of DYRK1B (unknown origin) at 0.49 uM relative to control
[15] = molecular target: Platelet-derived growth factor receptor alpha (Homo sapiens) (UniProt P16234); experiment: Inhibition of PDGFR alpha (unknown origin) at 0.49 uM relative to control
[16] = molecular target: Serine/threonine-protein kinase pim-3 (Homo sapiens) (UniProt Q86V86); experiment: Inhibition of PIM3 (unknown origin) at 0.49 uM relative to control
[17] = molecular target: Cyclin-dependent kinase 5/CDK5 activator 1 (Homo sapiens) (UniProt Q00535+Q15078); experiment: Inhibition of CDK5/p25 (unknown origin) at 0.45 uM relative to control; format: protein-complex assay
[18] = molecular target: Aurora kinase C (Homo sapiens) (UniProt Q9UQB9); experiment: Inhibition of AurC (unknown origin) at 0.45 uM relative to control
[19] = molecular target: T1, Aurora kinase A (Homo sapiens); experiment: Inhibition of AurA (unknown origin) at 0.45 uM relative to control
[20] = molecular target: Platelet-derived growth factor receptor beta (Homo sapiens) (UniProt P09619); experiment: Inhibition of PDGFR beta (unknown origin) at 0.45 uM relative to control
[21] = molecular target: T3, Protein kinase C zeta type (Homo sapiens) (UniProt Q05513); experiment: Inhibition of PKC-zeta (unknown origin) at 0.45 uM relative to control
T3 sequence (whole entry): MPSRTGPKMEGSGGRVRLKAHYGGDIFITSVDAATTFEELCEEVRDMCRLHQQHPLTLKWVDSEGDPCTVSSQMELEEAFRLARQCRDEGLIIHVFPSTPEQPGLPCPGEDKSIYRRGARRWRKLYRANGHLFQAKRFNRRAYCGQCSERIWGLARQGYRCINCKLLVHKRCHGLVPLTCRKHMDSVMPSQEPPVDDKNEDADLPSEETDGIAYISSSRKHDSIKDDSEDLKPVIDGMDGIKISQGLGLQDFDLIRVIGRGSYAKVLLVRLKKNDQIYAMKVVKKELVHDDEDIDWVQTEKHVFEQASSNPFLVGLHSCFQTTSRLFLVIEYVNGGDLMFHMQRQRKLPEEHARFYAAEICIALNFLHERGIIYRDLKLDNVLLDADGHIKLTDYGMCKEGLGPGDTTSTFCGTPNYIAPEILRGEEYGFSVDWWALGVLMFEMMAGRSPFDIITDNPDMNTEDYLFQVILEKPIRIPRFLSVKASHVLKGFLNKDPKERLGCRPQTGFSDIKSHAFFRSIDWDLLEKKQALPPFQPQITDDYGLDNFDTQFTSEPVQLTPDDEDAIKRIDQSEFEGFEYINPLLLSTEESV

[22] = molecular target: PAS domain-containing serine/threonine-protein kinase (Homo sapiens) (UniProt Q96RG2); experiment: Inhibition of PASK (unknown origin) at 0.45 uM relative to control

Platelet-derived growth factor receptor beta (Homo sapiens), sequence (P09619 whole entry): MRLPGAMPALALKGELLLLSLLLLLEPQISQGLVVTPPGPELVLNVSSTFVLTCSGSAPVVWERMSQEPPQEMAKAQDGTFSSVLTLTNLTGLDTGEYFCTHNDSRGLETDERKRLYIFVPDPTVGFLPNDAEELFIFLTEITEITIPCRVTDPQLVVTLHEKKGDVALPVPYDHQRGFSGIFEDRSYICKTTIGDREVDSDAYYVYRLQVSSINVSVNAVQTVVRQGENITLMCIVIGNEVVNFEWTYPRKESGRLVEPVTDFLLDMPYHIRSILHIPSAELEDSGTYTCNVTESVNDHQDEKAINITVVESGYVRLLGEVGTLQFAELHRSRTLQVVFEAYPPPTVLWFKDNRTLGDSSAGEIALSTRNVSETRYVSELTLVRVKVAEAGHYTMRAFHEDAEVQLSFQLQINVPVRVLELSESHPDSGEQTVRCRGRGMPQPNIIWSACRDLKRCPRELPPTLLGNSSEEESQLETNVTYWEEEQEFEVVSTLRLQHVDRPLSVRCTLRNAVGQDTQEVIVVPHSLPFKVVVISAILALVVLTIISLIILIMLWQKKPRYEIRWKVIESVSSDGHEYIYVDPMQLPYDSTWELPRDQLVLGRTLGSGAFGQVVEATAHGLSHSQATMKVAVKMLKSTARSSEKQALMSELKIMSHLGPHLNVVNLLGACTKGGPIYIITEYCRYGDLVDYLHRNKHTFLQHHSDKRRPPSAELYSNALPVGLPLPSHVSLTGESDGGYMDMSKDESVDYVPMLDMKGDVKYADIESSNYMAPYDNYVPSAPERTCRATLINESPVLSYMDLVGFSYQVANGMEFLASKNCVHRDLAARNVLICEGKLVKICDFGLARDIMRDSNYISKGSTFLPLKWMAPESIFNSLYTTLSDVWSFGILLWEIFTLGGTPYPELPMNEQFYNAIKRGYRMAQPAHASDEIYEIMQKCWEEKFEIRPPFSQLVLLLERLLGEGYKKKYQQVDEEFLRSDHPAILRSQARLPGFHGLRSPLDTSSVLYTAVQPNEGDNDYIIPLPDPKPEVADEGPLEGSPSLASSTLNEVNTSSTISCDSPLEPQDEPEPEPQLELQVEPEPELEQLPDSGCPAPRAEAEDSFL
Tyrosine-protein kinase Lyn (Homo sapiens), sequence (P07948 2-512 limits assumed): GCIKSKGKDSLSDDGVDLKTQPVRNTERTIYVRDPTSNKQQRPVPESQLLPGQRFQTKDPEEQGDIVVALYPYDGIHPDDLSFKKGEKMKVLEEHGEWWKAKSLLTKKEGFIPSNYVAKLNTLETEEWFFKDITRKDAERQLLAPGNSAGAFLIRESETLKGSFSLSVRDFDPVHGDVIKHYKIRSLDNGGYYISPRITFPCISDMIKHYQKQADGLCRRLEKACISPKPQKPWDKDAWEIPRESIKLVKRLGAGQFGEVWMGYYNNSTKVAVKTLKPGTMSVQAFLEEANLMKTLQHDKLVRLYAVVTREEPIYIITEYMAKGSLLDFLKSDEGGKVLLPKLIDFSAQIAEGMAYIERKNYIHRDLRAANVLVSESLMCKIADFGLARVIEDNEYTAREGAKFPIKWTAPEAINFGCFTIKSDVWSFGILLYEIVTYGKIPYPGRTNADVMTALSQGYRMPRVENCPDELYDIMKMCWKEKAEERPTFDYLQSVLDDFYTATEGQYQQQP
Platelet-derived growth factor receptor alpha (Homo sapiens), sequence (P16234 whole entry): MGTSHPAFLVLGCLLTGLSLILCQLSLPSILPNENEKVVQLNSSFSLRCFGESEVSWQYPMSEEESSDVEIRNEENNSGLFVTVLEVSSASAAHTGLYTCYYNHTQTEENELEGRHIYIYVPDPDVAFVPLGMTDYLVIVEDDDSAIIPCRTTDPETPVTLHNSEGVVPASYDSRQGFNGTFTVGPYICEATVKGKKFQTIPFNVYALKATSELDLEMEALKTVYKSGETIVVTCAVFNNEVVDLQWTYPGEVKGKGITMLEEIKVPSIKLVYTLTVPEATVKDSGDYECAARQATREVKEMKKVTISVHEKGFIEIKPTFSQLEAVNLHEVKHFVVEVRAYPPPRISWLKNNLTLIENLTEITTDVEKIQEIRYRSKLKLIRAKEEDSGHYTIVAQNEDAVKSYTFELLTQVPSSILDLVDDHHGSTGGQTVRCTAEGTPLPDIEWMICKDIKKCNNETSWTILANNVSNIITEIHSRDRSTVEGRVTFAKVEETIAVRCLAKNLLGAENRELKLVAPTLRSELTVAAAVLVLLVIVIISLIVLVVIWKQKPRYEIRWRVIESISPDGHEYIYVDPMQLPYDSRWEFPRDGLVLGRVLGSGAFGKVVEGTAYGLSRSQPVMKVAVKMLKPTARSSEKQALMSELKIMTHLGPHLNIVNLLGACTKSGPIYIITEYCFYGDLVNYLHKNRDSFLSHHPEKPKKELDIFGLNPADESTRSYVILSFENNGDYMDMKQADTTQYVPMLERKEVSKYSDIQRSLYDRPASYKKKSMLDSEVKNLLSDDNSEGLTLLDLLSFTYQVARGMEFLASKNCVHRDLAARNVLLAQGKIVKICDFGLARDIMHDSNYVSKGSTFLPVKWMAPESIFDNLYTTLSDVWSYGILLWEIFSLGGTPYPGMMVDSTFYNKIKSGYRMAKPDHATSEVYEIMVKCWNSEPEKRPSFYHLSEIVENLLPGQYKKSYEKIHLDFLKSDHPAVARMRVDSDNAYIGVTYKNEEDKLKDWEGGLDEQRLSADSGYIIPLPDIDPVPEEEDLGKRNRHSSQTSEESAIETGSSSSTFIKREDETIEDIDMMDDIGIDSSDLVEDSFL
Ribosomal protein S6 kinase alpha-2 (Homo sapiens), sequence (Q15349 whole entry): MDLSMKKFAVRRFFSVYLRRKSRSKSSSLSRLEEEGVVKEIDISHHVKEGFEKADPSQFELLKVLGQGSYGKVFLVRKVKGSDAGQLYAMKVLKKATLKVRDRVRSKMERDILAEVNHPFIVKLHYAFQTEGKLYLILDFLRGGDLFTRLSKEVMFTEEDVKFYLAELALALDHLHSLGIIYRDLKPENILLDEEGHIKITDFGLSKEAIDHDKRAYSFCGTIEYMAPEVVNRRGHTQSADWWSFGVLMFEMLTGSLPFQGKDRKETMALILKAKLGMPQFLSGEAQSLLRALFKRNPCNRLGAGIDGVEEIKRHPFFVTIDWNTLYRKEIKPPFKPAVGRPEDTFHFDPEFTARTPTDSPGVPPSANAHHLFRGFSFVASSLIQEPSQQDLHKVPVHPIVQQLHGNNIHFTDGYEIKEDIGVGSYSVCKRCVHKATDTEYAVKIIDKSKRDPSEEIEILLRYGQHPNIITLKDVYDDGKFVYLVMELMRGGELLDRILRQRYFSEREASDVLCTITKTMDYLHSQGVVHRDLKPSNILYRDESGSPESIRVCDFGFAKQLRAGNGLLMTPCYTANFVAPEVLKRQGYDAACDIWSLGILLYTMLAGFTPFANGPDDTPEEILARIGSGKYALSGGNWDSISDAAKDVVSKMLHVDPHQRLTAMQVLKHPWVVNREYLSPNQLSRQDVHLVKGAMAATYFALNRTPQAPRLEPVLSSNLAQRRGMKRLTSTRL
Aurora kinase C (Homo sapiens), sequence (Q9UQB9 whole entry): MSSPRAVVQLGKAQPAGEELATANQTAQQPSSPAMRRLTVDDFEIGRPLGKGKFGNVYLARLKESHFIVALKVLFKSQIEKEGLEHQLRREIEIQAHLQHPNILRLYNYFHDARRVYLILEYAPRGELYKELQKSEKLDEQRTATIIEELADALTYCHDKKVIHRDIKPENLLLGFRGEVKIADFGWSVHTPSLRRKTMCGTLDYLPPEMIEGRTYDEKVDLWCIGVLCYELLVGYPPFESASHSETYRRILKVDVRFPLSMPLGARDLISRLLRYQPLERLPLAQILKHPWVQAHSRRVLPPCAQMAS
RAF proto-oncogene serine/threonine-protein kinase (Homo sapiens), sequence (P04049 whole entry): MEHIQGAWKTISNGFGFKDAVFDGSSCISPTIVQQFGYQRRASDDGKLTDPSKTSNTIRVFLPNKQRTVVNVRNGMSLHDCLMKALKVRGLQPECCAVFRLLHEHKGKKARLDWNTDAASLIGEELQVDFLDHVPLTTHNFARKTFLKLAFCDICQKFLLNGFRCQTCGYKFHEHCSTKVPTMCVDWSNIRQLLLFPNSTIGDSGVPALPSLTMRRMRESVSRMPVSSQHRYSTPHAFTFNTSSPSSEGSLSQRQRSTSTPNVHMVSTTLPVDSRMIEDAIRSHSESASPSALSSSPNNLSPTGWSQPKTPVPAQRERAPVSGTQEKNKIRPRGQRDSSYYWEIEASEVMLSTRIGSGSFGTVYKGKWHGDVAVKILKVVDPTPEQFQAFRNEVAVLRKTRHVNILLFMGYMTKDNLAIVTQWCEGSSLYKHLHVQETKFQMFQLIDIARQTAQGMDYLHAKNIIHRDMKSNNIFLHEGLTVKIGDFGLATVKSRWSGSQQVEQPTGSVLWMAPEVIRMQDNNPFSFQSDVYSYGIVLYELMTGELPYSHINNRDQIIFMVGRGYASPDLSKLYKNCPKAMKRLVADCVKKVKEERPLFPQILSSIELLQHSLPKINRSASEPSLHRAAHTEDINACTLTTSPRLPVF

inhibition [1]: 17.3%
inhibition [2]: 0.7%
inhibition [3]: -1.7%
Compound: COC(=O)Nc1noc2cc(-c3c(-c4ccccn4)n[nH]c3C)ccc12

inhibition [4]: -0.3%
inhibition [5]: 20%
inhibition [6]: 2%
inhibition [7]: 5.3%
inhibition [8]: 11.3%
inhibition [9]: 0.3%
inhibition [10]: 3.3%
inhibition [11]: 4%
inhibition [12]: 6.7%
inhibition [13]: 0%
inhibition [14]: 2%
inhibition [15]: 0.7%
inhibition [16]: -4%
Compound: Cc1[nH]nc(C2CC2)c1-c1ccc2c(NC(=O)C3CC3)noc2c1

inhibition [17]: 0.3%
inhibition [18]: -1%
inhibition [19]: 7%
inhibition [20]: 78.3%
inhibition [21]: 7%
inhibition [22]: -2%
Compound: Cc1n[nH]c(C)c1-c1ccc2c(NC(=O)c3ccc(N4CCN(C)CC4)cc3)n[nH]c2c1
